Data on two compounds can be found in patent US7919510B2 (priority 2005, dated 2011).

The target of experiment [1] is human endothelial constitutive NOS (eNOS) (Homo sapiens, UniProt P29474). Description: biochemical. The following applies: read-out: h-eNOS IC50.
The conditions of experiment [2]: human, open pilot study; cited from earlier work.

With `CN1CCC(n2cnc3cc(NC(=N)c4cccs4)ccc32)CC1` [Compound 59], the half-inhibitory concentration (IC50) in experiment [1] stood at 6.66 µM.
Take `C/C1=C2/[N-][C@H]([C@H](CC(N)=O)[C@@]2(C)CCC(=O)NC[C@@H](C)OP(=O)([O-])O[C@H]2[C@@H](O)[C@@H](n3cnc4cc(C)c(C)cc43)O[C@@H]2CO)[C@]2(C)N=C(/C(C)=C3N=C(/C=C4N=C1[C@@H](CCC(N)=O)C\4(C)C)[C@@H](CCC(N)=O)[C@]\3(C)CC(N)=O)[C@@H](CCC(N)=O)[C@]2(C)CC(N)=O.[Co+3].[OH-]` [hydroxycobalamin]: in experiment [2], the “patients with a reduction in the frequency of migraine attack of 50%” value is reported as 53%.
